# From patent US12503713B1, “Stabilization of tryptamines by denaturing enzymes, optimizing ionization states, and controlling confounding variables” (Convergent Health Sciences LLC, priority 2025, dated 2025)
# Legend:
# laccase enzyme = assay: colorimetric assay with a syringaldazine substrate for residual laccase enzyme activity; assay type: biochemical, Psilocybe cubensis; conditions: supernatants of the extracts
# Description: The denaturation of relevant laccase enzymes may be assessed, for example, by performing a colorimetric assay with a laccase enzyme substrate such as syringaldazine or 2,2′-azino-bis(3-ethylbenzothiazoline-6-sulfonate) (ABTS). Syringaldazine comprises an aromatic structure with pendant hydroxyl groups, which is chemically similar to the indole of a hydroxytryptamine, and ABTS comprises a benzothiazoline, which is chemically similar to the indole of tryptamines generally. Colorimetric assays performed with a syringaldazine or ABTS substrate therefore provide suitable methods to assess laccase activity that are relevant to this disclosure.
# (§1) The molecular weights of the analytes are determined by electrospray ionization mass spectroscopy (ESI-MS) operating in positive ion mode. The supernatants are also used for a colorimetric assay with a para-nitrophenyl phosphate substrate to identify residual phosphatase enzyme activity and for a colorimetric assay with a syringaldazine substrate to identify any residual laccase enzyme activity.
# phosphatase enzyme = assay: colorimetric assay with a para-nitrophenyl phosphate substrate for residual phosphatase enzyme activity; assay type: biochemical, Psilocybe cubensis; conditions: supernatants of the extracts
# Description: The denaturation of relevant phosphatase enzymes may be assessed, for example, by performing a colorimetric assay with a para-nitrophenyl phosphate substrate. Para-nitrophenyl phosphate comprises a phosphorylated aromatic, which is chemically similar to the phosphorylated indole of a phosphoryloxytryptamine. Colorimetric assays performed with a para-nitrophenyl phosphate substrate therefore provide suitable methods to assess […] that are relevant to this disclosure.
# as §1
# [1] = spontaneous dephosphorylation of phosphoryloxytryptamines in phosphate buffers, one hour at 85 degrees Celsius, HPLC at 220 nanometers (Example 1)
# [2] = cited from earlier work
# [3] = cited from earlier work; remark: listed apart in the source
# [4] = pH of 2.0 relative to pH of 3.0
# [5] = pH of 7.0 relative to pH of 6.0
# [6] = pH of 3.0 relative to pH of 2.0
# [7] = pH of 6.0 relative to pH of 7.0
compound,measurement,setting,value
"polyethylene glycol 4-(2,4,4-trimethylpent-2-yl)phenyl ether [Triton X-100]",laccase enzyme activity relative to the water control,laccase enzyme,significantly less
same,phosphatase enzyme activity relative to the water control,phosphatase enzyme,significantly less
"Cl.N=C(N)N [guanidinium, guanidinium chloride]",laccase enzyme activity relative to the water control,laccase enzyme,significantly less
same,phosphatase enzyme activity relative to the water control,phosphatase enzyme,significantly less
"C[N+](C)(C)CCc1c[nH]c2cccc(O)c12 [4-hydroxy-TMT, [2-(4-hydroxy-1H-indol-3-yl)ethyl]-trimethylazanium]",absorbance detected for the hydroxytryptamine,[1]; [4],greater absorbance
same,absorbance detected for the hydroxytryptamine,[1]; [5],greater absorbance
"NCCc1c[nH]c2cccc(OP(=O)(O)O)c12 [norbaeocystin, 2-(4-phosphonooxy-1H-indol-3-yl)ethylazanium]",absorbance detected for the phosphoryloxytryptamine,[1]; [6],Greater absorbance
same,absorbance detected for the phosphoryloxytryptamine,[1]; [7],Greater absorbance
"CNCCc1c[nH]c2cccc(OP(=O)(O)O)c12 [baeocystin, [2-(4-phosphonooxy-1H-indol-3-yl)ethyl]-methylazanium]",absorbance detected for the phosphoryloxytryptamine,[1]; [6],Greater absorbance
same,absorbance detected for the phosphoryloxytryptamine,[1]; [7],Greater absorbance
NC(N)=O [urea],laccase enzyme activity relative to the water control,laccase enzyme,significantly less
same,phosphatase enzyme activity relative to the water control,phosphatase enzyme,significantly less
"C[N+](C)(C)CCc1c[nH]c2cccc(OP(=O)(O)O)c12 [aeruginascin, [2-(4-phosphonooxy-1H-indol-3-yl)ethyl]-trimethylazanium]",absorbance detected for the phosphoryloxytryptamine,[1]; [6],Greater absorbance
same,absorbance detected for the phosphoryloxytryptamine,[1]; [7],Greater absorbance
OCCc1c[nH]c2ccccc12 [tryptophol],solubility in water,[2],insoluble in water
"CNCCc1c[nH]c2cccc(O)c12 [norpsilocin, 3-[2-(methylamino)ethyl]-1H-indol-4-ol]",absorbance detected for the hydroxytryptamine,[1]; [4],greater absorbance
same,absorbance detected for the hydroxytryptamine,[1]; [5],greater absorbance
CN(C)CCc1c[nH]c2cccc(OP(=O)(O)O)c12 [psilocybin],pKa of the azanium of psilocybin,[3]; conjugate acid of the amino,about 10.4
same,pKa of the dihydrogen phosphate of psilocybin (lowest pKa),[3]; first phosphate pKa,about 1.3
N.N.O=S(=O)(O)O [ammonium sulfate],laccase enzyme activity relative to the water control,laccase enzyme,significantly less
same,phosphatase enzyme activity relative to the water control,phosphatase enzyme,significantly less
"O=C(O)Cc1c[nH]c2ccccc12 [Indole-3-acetic acid, indole-3-acetic acid]",solubility in water,[2],insoluble in water
Chitin,solubility in water,[2],insoluble in water
CCCCCCCCCCCCOS(=O)(=O)[O-].[Na+] [sodium dodecyl sulfate],laccase enzyme activity relative to the water control,laccase enzyme,significantly less
same,phosphatase enzyme activity relative to the water control,phosphatase enzyme,significantly less
"CN(C)CCc1c[nH]c2cccc(O)c12 [psilocin, 3-[2-(dimethylamino)ethyl]-1H-indol-4-ol]",absorbance detected for the hydroxytryptamine,[1]; [4],greater absorbance
same,absorbance detected for the hydroxytryptamine,[1]; [5],greater absorbance
"CCCCCCCCO[C@@H]1O[C@H](CO)[C@@H](O)[C@H](O)[C@H]1O [octyl glucoside, octyl β-D-glucopyranoside]",laccase enzyme activity relative to the water control,laccase enzyme,significantly less
same,phosphatase enzyme activity relative to the water control,phosphatase enzyme,significantly less
"NCCc1c[nH]c2cccc(O)c12 [4-HT, 3-(2-aminoethyl)-1H-indol-4-ol]",absorbance detected for the hydroxytryptamine,[1]; [4],greater absorbance
same,absorbance detected for the hydroxytryptamine,[1]; [5],greater absorbance
